# From patent US9567302B2, “Carbamate compounds and of making and using same” (Abide Therapeutics, Inc., priority 2012, dated 2017)
# Tests used:
# [1] = target: T1, hMAGL (Homo sapiens, UniProt Q99685); assay: Competitive ABPP with human MAGL recombinantly expressed in HEK293T cells; assay type: biochemical; settings: Table 1; hMAGL-HEK293T cell lysates
# T1 construct: expressed in transfected cells; host or cells: HEK293T
# T1 sequence (Q99685 1-303): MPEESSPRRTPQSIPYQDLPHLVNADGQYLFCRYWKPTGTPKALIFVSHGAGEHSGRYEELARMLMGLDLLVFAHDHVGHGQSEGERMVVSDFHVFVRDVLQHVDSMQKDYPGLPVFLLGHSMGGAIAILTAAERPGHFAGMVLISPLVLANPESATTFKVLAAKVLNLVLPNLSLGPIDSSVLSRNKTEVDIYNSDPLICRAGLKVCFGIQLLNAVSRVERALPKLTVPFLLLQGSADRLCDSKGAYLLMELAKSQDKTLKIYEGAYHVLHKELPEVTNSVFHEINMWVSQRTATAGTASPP
# Method: (§1) Proteomes (mouse brain membrane fraction or cell lysates) (50 μL, 1.0 mg/ml total protein concentration) were preincubated with varying concentrations of inhibitors at 37° C. After 30 min, FP-Rh (1.0 μL, 50 μM in DMSO) was added and the mixture was incubated for another 30 min at 37° C. Reactions were quenched with SDS loading buffer (50 μL—4×) and run on SDS-PAGE.
# Recombinant Expression of Human MAGL in HEK293T Cells.
# Cell lysates were diluted with mock proteomes for use in competitive ABPP experiments.
# [2] = target: T2, MAGL (Mus musculus, UniProt O35678); assay: In vitro competitive activity-based protein profiling (FP-Rh), mouse MAGL; assay type: biochemical; set-up: from tissue; host or cells: mouse brain membrane fraction; settings: 30 min preincubation at 37° C.
# T2 sequence (O35678 1-303): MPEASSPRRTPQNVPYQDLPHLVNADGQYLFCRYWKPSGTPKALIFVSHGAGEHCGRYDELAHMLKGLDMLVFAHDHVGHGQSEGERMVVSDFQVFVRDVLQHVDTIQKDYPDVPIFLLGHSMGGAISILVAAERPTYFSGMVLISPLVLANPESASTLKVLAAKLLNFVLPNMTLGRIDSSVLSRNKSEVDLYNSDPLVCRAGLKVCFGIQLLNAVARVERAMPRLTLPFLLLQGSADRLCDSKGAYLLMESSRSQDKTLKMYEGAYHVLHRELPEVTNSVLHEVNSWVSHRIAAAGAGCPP
# Method: (§2) In Vitro Competitive Activity-Based Protein Profiling.
# as §1
# [3] = target: T3, FAAH (Mus musculus, UniProt O08914); assay: In vitro competitive activity-based protein profiling (FP-Rh), mouse FAAH; assay type: biochemical; set-up: from tissue; host or cells: mouse brain membrane fraction; settings: 30 min preincubation at 37° C.
# T3 sequence (O08914 1-579): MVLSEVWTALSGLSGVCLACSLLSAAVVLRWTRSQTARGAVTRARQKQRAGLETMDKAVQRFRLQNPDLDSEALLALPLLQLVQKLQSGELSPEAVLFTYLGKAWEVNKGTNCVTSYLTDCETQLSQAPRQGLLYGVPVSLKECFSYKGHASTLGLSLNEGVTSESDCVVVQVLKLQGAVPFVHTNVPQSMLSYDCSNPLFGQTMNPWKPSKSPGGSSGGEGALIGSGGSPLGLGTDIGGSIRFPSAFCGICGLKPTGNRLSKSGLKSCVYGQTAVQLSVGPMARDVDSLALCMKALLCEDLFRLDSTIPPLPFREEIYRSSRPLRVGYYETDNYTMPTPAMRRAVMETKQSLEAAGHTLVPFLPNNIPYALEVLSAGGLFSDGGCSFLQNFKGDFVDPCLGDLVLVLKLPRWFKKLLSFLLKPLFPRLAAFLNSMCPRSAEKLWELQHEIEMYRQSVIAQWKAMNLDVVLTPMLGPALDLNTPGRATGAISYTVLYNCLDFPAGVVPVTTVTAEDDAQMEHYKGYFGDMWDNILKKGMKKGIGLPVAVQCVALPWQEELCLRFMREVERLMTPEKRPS
# Method: as §2, §1
# [4] = target: T4, ABHD6 (Mus musculus, UniProt Q8R2Y0); assay: In vitro competitive activity-based protein profiling (FP-Rh), mouse ABHD6; assay type: biochemical; set-up: from tissue; host or cells: mouse brain membrane fraction; settings: 30 min preincubation at 37° C.
# T4 sequence (Q8R2Y0 1-336): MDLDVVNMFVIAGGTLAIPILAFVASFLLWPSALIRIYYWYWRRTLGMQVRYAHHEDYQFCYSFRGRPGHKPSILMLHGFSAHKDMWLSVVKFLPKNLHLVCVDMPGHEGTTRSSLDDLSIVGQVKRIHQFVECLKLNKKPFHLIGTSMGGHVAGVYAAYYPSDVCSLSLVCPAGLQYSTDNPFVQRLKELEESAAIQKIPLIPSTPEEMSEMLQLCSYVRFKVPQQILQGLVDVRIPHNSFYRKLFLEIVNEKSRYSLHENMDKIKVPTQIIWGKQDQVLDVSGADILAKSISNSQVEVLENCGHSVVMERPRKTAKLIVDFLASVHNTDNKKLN
# Method: as §2, §1
# [5] = target: T2, MAGL; assay: Mouse brain MAGL inhibition in proteomes from inhibitor treated mice (oral gavage); assay type: in vivo; set-up: from tissue; host or cells: mouse brain membrane fraction; settings: p.o., C57Bl/6J mice, brain proteome 4 h following administration
# Method: as §1
# Preparation of Mouse Brain Proteomes from Inhibitor Treated Mice.
# Inhibitors were administered to wild-type C57B1/6J by oral gavage in a vehicle of polyethylene glycol.
SMILES,IC50 [1] [nM],"IC50 ([2]; Table 1, mouse proteome) [nM]","IC50 ([3]; Table 1, mouse proteome) [nM]","IC50 ([4]; Table 1, mouse proteome) [nM]",inhibition at 20 mg/kg [5] [%],"IC50 ([2]; Table 2, mouse proteome) [nM]","IC50 ([3]; Table 2, mouse proteome) [nM]","IC50 ([4]; Table 2, mouse proteome) [nM]",inhibition at 5 mg/kg [5] [%]
"O=C(ON1C(=O)CCC1=O)N1CCC(C(O)(c2ccc3c(c2)OCO3)c2ccc3c(c2)OCO3)CC1 [Example 1, 2,5-Dioxopyrrolidin-1-yl 4-(bis(benzo[d][1,3]dioxol-5 yl)(hydroxy)methyl)piperidine-1-carboxylate]",< 100,< 100,> 10000,100 to 1000,75,,,,
"O=C(ON1C(=O)CCC1=O)N1CCN(Cc2ccc(C(F)(F)F)cc2N2CCCC2)CC1 [Example 105, 2,5-Dioxopyrrolidin-1-yl 4-{[2-(pyrrolidin-1-yl)-4-(trifluoromethyl)phenyl]methyl}piperazine-1-carboxylate]",,,,,,< 100,> 10000,1000 to 10000,75
"Cc1c(CN2CCN(C(=O)ON3C(=O)CCC3=O)CC2)cccc1N1CCCCC1 [Example 122, 2,5-Dioxopyrrolidin-1-yl 4-(2-methyl-3-(piperidin-1-yl)benzyl)piperazine-1-carboxylate]",,,,,,< 100,> 10000,100 to 1000,100

# Next, values leading:
IC50 [1] [nM],"IC50 ([2]; Table 1, mouse proteome) [nM]","IC50 ([3]; Table 1, mouse proteome) [nM]","IC50 ([4]; Table 1, mouse proteome) [nM]",inhibition at 20 mg/kg [5] [%],"IC50 ([2]; Table 2, mouse proteome) [nM]","IC50 ([3]; Table 2, mouse proteome) [nM]","IC50 ([4]; Table 2, mouse proteome) [nM]",inhibition at 5 mg/kg [5] [%],SMILES
< 100,< 100,> 10000,100 to 1000,> 95,,,,,"O=C(ON1C(=O)CCC1=O)N1CCN(C(c2ccc(Br)cc2)c2ccc(Br)cc2)CC1 [Example 3, 2,5-Dioxopyrrolidin-1-yl 4-[bis(4-bromophenyl)methyl]piperazine-1-carboxylate]"
,< 100,> 10000,100 to 1000,> 95,,,,,"O=C(ON1C(=O)CNC1=O)N1CCN(C(c2ccc(Cl)cc2)c2ccc(Cl)cc2)CC1 [Example 46, 2,5-Dioxoimidazolidin-1-yl 4-(bis(4-chlorophenyl)methyl)piperazine-1-carboxylate]"
